Test system: rats subjected to adrenalectomy (granuloma around implanted cotton wads)
Test: granulom test (cotton-pellet test) on rats subjected to adrenalectomy: granuloma growth, thymus weight, body weight increase
Assay type: in vivo, rat (Sprague-Dawley)
Details: for Dose required to obtain 50% inhibition of Granuloma growth: Table 3, adrenalectomized young male Sprague-Dawley rats, topical in implanted cotton wads, day 8; for Dose required to obtain 25% inhibition of Body weight Increase / Dose required to obtain 50% inhibition of Thymus weight: 11520 min
From the text: In the following this active stereoisomeric component will always be designated B. As regards the steroids referred to in connection with the present invention the stereoisomeric mixture as well as the individual stereoisomeric components A and B have been investigated with regard to antiinflammatory activity in granulom test on rats subjected to adrenalectomy. The experimental procedure used corresponds largely to that described by G. Engelhardt: Arzneimittel-Forschung, 13, p. 588, 1963. According to this procedure the test substances are applied topically in the implanted cottom wads. It is thereby possible to study the local antiinflammatory effect in granulomas and also systemic effects in the form of retrogression of thymus and inhibition of bodyweight growth.
Young male rats of the Sprague-Dawley strain weighing about 110-130 g were subjected to adrenalectomy under ether narcosis. Two sterilized cottom wads of each about 6 mg were implanted simultaneously subcutaneously on the lateral side of the spinal. After awakening the animals were stored 5 per cage and were supplied with normal food and 1% sodium chloride solution as drinking water. On the eighth test day the animals were sacrificed by ether narcosis. The granuloma formed around the cotton wads were carefully recovered and thymus and body weights were measured. The two granuloma from each animal were dried over night at 80° C and weighed. After subtraction of the initial weight of the cotton wads the weight increase was used as a measure of the granulom growth.
The test substances were used dissolved in ethyl acetate. Under aseptic conditions 0.05 ml of said solutions were injected into each of the cotton wads, whereafter the solvent was allowed to evaporate in the desiccator. Normally 3 concentrations of each test substance with the standard doses 3.3, 30 and 270 γ/animal were investigated. Each test group normally comprised 10 rats. The cotton wads of the control group were injected with only ethyl acetate, but were in other respects treated in the same way. When considering the effects of the test substances the average values of granulom growth, thymus weight and body weight increase day 0-8 were measured in each group in absolute figures and in % of the corresponding figure of the control group. Dose-response curves were drafted and used for estimating the doses giving 50 % reduction of granulom growth and of thymus weight and 25 % decrease of body weight increase.
The following Table 4 discloses the results of the cotton-pellet test hereinbefore described, giving in addition figures for the therapeutic ratios, that is, the ratios of the ED50 for thymus weight inhibition divided by the ED50 for granuloma formation inhibition, and the ED25 for body weight increase inhibition over the ED50 for granuloma formation inhibition. As will be recognized, the higher the number for the therapeutic ratio, the more favorable the therapeutic ratio. […] As will be noted for the table, the therapeutic ratio for thymus over granuloma for the Component A esters is 4.2, 7.1, 4.5, 2.6, 2.2, 1.7, 2.5 and 1.7 times as good as it is for the corresponding Component B ester isomer, whereas the therapeutic ratio for the Component A ester isomer as far as body weight is granuloma 2.7, 3.3, 9.8, 6.4, 2.3, 2.8, 3.3 and 2.8 times as favorable as for the corresponding Component B ester isomer.

SMILES | Dose required to obtain 50% inhibition of Granuloma growth | Dose required to obtain 25% inhibition of Body weight Increase (rat, in vivo) | Dose required to obtain 50% inhibition of Thymus weight (rat, in vivo) | ED25 body weight increase inhibition (rat, in vivo) [µg/animal] | ED50 thymus weight inhibition (rat, in vivo) [µg/animal] | Therapeutic ratio body weight/granuloma (rat, in vivo) | Therapeutic ratio thymus/granuloma (rat, in vivo) | Therapeutic ratio body weight/granuloma (Table 4, ED25 body weight increase inhibition over ED50 granuloma formation inhibition) | Therapeutic ratio thymus/granuloma (Table 4, ED50 thymus weight inhibition divided by ED50 granuloma formation inhibition) | decrease of body weight growth at the dose giving 50% inhibition of granulom growth (rat, in vivo) | decrease of thymus weight at the dose giving 50% inhibition of granulom growth (rat, in vivo)
CC1(C)O[C@@H]2C[C@H]3[C@@H]4CCC5=CC(=O)C=C[C@]5(C)[C@H]4[C@@H](O)C[C@]3(C)[C@]2(C(=O)CO)O1 [Prednacinolone acetonide, reference compound] | 270 γ/animal | > 270 γ/animal | 105 γ/animal |  |  |  |  |  |  |  | 
CCCC1O[C@@H]2C[C@H]3[C@@H]4CCC5=CC(=O)C=C[C@]5(C)[C@H]4[C@@H](O)C[C@]3(C)[C@]2(C(=O)COC(C)=O)O1 (single isomer, unassigned) [27 B] | < 3 γ/animal | 35 γ/animal | 60 γ/animal | 35 | 60 | > 11.7 | > 20.0 |  |  |  | 
CCC1OC2CC3C4CCC5=CC(=O)C=CC5(C)C4(F)C(O)CC3(C)C2(C(=O)CO)O1 (mixture of isomers) [2 A+B] | 35 γ/animal | 140 γ/animal | 100 γ/animal |  |  |  |  |  |  |  | 
CCCC1OC2CC3C4CCC5=CC(=O)C=CC5(C)C4(F)C(O)CC3(C)C2(C(=O)CO)O1 (mixture of isomers) [3 A+B] | 10 γ/animal | > 30 γ/animal | > 30 γ/animal |  |  |  |  |  |  |  | 
CC1O[C@@H]2C[C@H]3[C@@H]4CCC5=CC(=O)C=C[C@]5(C)[C@@]4(F)[C@@H](O)C[C@]3(C)[C@]2(C(=O)COC(=O)c2cc3ccccc3o2)O1 (stereo partly drawn) [16 B] | 3 γ/animal | 10 γ/animal | 10 γ/animal | 10 | 10 |  |  | 3.3 | 3.3 |  | 
CCCC1O[C@@H]2C[C@H]3[C@@H]4CCC5=CC(=O)C=C[C@]5(C)[C@@]4(F)[C@@H](O)C[C@]3(C)[C@]2(C(=O)COC(=O)c2cc3ccccc3o2)O1 (single isomer, unassigned) [20 B] | < 3 γ/animal | 5 γ/animal | 20 γ/animal | 5 | 20 | > 1.7 | > 6.7 |  |  |  | 
CC1O[C@@H]2C[C@H]3[C@@H]4CCC5=CC(=O)C=C[C@]5(C)[C@@]4(F)[C@@H](O)C[C@]3(C)[C@]2(C(=O)CO)O1 (single isomer, unassigned) [1 A] | 270 γ/animal | 60 γ/animal | 115 γ/animal |  |  |  |  |  |  |  | 
CC1O[C@@H]2C[C@H]3[C@@H]4CCC5=CC(=O)C=C[C@]5(C)[C@@]4(F)[C@@H](O)C[C@]3(C)[C@]2(C(=O)COC(=O)c2cccnc2)O1 (single isomer, unassigned) [17 A] | 7 γ/animal | 20 γ/animal | 45 γ/animal |  |  |  |  |  |  |  | 
CCCCC1OC2CC3C4CCC5=CC(=O)C=CC5(C)C4(F)C(O)CC3(C)C2(C(=O)CO)O1 (mixture of isomers) [4 A+B] | < 3 γ/animal | 170 γ/animal | 70 γ/animal |  |  |  |  |  |  |  | 
CCCC1O[C@@H]2C[C@H]3[C@@H]4CCC5=CC(=O)C=C[C@]5(C)[C@@]4(F)[C@@H](O)C[C@]3(C)[C@]2(C(=O)COC(=O)c2cccnc2)O1 (single isomer, unassigned) [21 A] | < 3 γ/animal | 70 γ/animal | 70 γ/animal |  |  |  |  |  |  |  | 
CCCCC(=O)OCC(=O)[C@@]12OC(C)O[C@@H]1C[C@H]1[C@@H]3CCC4=CC(=O)C=C[C@]4(C)[C@@]3(F)[C@@H](O)C[C@@]12C (single isomer, unassigned) [18 B] | < 3 γ/animal | 10 γ/animal | 10 γ/animal | 10 | 10 | > 3.3 | > 3.3 |  |  |  | 
CCCC1O[C@@H]2C[C@H]3[C@@H]4C[C@H](F)C5=CC(=O)C=C[C@]5(C)[C@@]4(F)[C@@H](O)C[C@]3(C)[C@]2(C(=O)CO)O1 (single isomer, unassigned) [8 A] | 6 γ/animal | 50 γ/animal | 13 γ/animal |  |  |  |  |  |  |  | 
CCCCC(=O)OCC(=O)C12OC(CCC)OC1CC1C3CCC4=CC(=O)C=CC4(C)C3(F)C(O)CC12C (mixture of isomers) [22 A+B] | 10 γ/animal | 30 γ/animal | 50 γ/animal |  |  |  |  |  |  |  | 
CCC1O[C@@H]2C[C@H]3[C@@H]4CCC5=CC(=O)C=C[C@]5(C)[C@@]4(F)[C@@H](O)C[C@]3(C)[C@]2(C(=O)CO)O1 (single isomer, unassigned) [2 A] | 25 γ/animal | 90 γ/animal | 130 γ/animal |  |  |  |  |  |  |  | 
CCCC1OC2CC3C4CC(F)C5=CC(=O)C=CC5(C)C4(F)C(O)CC3(C)C2(C(=O)COC(=O)c2cc3ccccc3o2)O1 (mixture of isomers) [25 A+B] | < 3 γ/animal | 10 γ/animal | 10 γ/animal |  |  |  |  |  |  |  | 
CC1O[C@@H]2C[C@H]3[C@@H]4C[C@H](F)C5=CC(=O)C=C[C@]5(C)[C@@]4(F)[C@@H](O)C[C@]3(C)[C@]2(C(=O)CO)O1 (single isomer, unassigned) [7 A] | 15 γ/animal | 20 γ/animal | 12 γ/animal |  |  |  |  |  |  |  | 
CCCC1O[C@@H]2C[C@H]3[C@@H]4CCC5=CC(=O)C=C[C@]5(C)[C@H]4[C@@H](O)C[C@]3(C)[C@]2(C(=O)CO)O1 (stereo partly drawn) [12 A+B] | 100 γ/animal | 80 γ/animal | 80 γ/animal |  |  |  |  |  |  |  | 
CC1O[C@@H]2C[C@H]3[C@@H]4CCC5=CC(=O)C=C[C@]5(C)[C@@]4(F)[C@@H](O)C[C@]3(C)[C@]2(C(=O)CO)O1 (single isomer, unassigned) [1 B] | 30 γ/animal | 30 γ/animal | 50 γ/animal |  |  |  |  |  |  |  | 
CCCC1O[C@@H]2C[C@H]3[C@@H]4CCC5=CC(=O)C=C[C@]5(C)[C@@]4(F)[C@@H](O)C[C@]3(C)[C@]2(C(=O)COC(=O)c2cccnc2)O1 (single isomer, unassigned) [21 B] | < 3 γ/animal | 5 γ/animal | 10 γ/animal |  |  |  |  |  |  |  | 
CC1(C)O[C@@H]2C[C@H]3[C@@H]4C[C@H](F)C5=CC(=O)C=C[C@]5(C)[C@@]4(F)[C@@H](O)C[C@]3(C)[C@]2(C(=O)CO)O1 [Fluocinolone acetonide, reference compound] | ~50 γ/animal | 20 γ/animal | 14 γ/animal |  |  |  |  |  |  | heavy decrease | heavy decrease
CCCC1OC2CC3C4CC(F)C5=CC(=O)C=CC5(C)C4(F)C(O)CC3(C)C2(C(=O)CO)O1 (mixture of isomers) [8 A+B] | 5 γ/animal | 50 γ/animal | 10 γ/animal |  |  |  |  |  |  |  | 

— patent US3996359A, “Novel stereoisomeric component A of stereoisomeric mixtures of 2'-unsymmetrical 16,17-methylenedioxy steroid 21-acylates, compositions thereof, and method of treating therewith” (AB Bofors, priority 1972, dated 1976)
